The compounds below were run against STING (Homo sapiens, UniProt Q86WV6, G230A/H232R/R293Q/R71H) (assay: STING reporter assay in THP1-Dual KO-IFNAR2 cells (2′3′cGAMP stimulation, luciferase reporter)). Conditions: 15 μM 2′3′cGAMP stimulation, 24 h, read-out: Pharmaron, THP1_IFNAR2 STING 24 h Luci Normalized: GeoMean EC50.
STING, sequence (Q86WV6 whole entry R71H/G230A/H232R/R293Q): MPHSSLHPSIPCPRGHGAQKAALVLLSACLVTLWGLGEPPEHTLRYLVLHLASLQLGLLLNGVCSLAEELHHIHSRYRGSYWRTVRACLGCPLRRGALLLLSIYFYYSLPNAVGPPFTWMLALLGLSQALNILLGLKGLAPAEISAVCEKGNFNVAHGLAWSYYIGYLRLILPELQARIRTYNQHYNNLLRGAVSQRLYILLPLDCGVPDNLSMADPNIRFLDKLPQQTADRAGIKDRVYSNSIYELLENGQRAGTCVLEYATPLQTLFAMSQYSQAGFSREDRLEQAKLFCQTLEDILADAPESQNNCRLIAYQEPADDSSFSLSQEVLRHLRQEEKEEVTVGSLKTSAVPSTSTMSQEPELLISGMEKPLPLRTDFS
Assay type: cell-based
Outline: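 THP1-Dual KO-IFNAR2 cells (2×10E6 cells/mL) with compounds at 0.0017-100 μM final, stimulated with 15 μM final 2′3′cGAMP delivered by Lipofectamine 2000; 24 h at 37 °C. Luciferase in supernatant read with QUANTI-Luc Plus; EC50 derived from luminescence.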
Compound CO[C@H]1C[C@H](C(=O)Nc2c[nH]c3ccc(OCCc4ccc(C(F)(F)F)nc4)cc23)C1 [Compound 194, trans-3-methoxy-N-(5-(2-(6-(trifluoromethyl)pyridin-3-yl)ethoxy)-1H-indol-3-yl)cyclobutane-1-carboxamide] has an EC50 of 200 to 1000 nM.
O=C(Nc1c[nH]c2ccc(OCCc3ccc(C(F)(F)F)nc3)cc12)C1CN(CC(F)(F)F)C1 [Compound 195, 1-(2,2,2-trifluoroethyl)-N-(5-(2-(6-(trifluoromethyl)pyridin-3-yl)ethoxy)-1H-indol-3-yl)azetidine-3-carboxamide] gave an EC50 of 200 to 1000 nM.
CC(=O)Nc1c[nH]c2ccc(OCCn3ccc(C(F)(F)F)n3)cc12 [Compound 196, N-(5-(2-(3-(trifluoromethyl)-1H-pyrazol-1-yl)ethoxy)-1H-indol-3-yl)acetamide] was tested, and the EC50 was 5000 to 100000 nM.
CC(=O)Nc1c[nH]c2ccc(OCCn3cc(C(F)(F)F)cn3)cc12 [Compound 197, N-(5-(2-(4-(trifluoromethyl)-1H-pyrazol-1-yl)ethoxy)-1H-indol-3-yl)acetamide] showed an EC50 of 5000 to 100000 nM.
CC(=O)Nc1c[nH]c2ccc(CCOc3ccc(C4(C)CCN(CC(F)(F)F)CC4)cc3)cc12 [Compound 198, N-(5-(2-(4-(4-methyl-1-(2,2,2-trifluoroethyl)piperidin-4-yl)phenoxy)ethyl)-1H-indol-3-yl)acetamide] showed an EC50 of 200 to 1000 nM.
CC(=O)Nc1c[nH]c2ccc(CCNc3ccc(C(F)(F)F)cn3)cc12 [Compound 199, N-(5-(2-((5-(trifluoromethyl)pyridin-2-yl)amino)ethyl)-1H-indol-3-yl)acetamide] gave an EC50 of 1000 to 5000 nM.
CC(C)(C)CC(=O)Nc1c[nH]c2ccc(OCCc3ccc(C(F)(F)F)cc3)cc12 [Compound 202, 3,3-dimethyl-N-(5-(4-(trifluoromethyl)phenethoxy)-1H-indol-3-yl)butanamide] was tested, and the EC50 was 40 to 200 nM.
N#C[C@H]1C[C@@H]1C(=O)Nc1c[nH]c2ccc(OCCc3ccc(C(F)(F)F)cc3)cc12 [Compound 203, (1S,2S)-2-cyano-N-(5-(4-(trifluoromethyl)phenethoxy)-1H-indol-3-yl)cyclopropane-1-carboxamide] showed an EC50 of 200 to 1000 nM.
In the case of COCC1(C(=O)Nc2c[nH]c3ccc(OCCc4ccc(C(F)(F)F)cc4)cc23)CC1 [Compound 204, 1-(methoxymethyl)-N-(5-(4-(trifluoromethyl)phenethoxy)-1H-indol-3-yl)cyclopropane-1-carboxamide], the EC50 is reported as 40 to 200 nM.
C[C@H]1C[C@H](C(=O)Nc2c[nH]c3ccc(OCCc4ccc(C(F)(F)F)cc4)cc23)C1 [Compound 205, trans-3-methyl-N-(5-(4-(trifluoromethyl)phenethoxy)-1H-indol-3-yl)cyclobutane-1-carboxamide] showed an EC50 of 40 to 200 nM.
C[C@H]1C[C@@H]1C(=O)Nc1c[nH]c2ccc(OCCc3ccc(C(F)(F)F)cc3)cc12 [Compound 206, (1S,2S)-2-methyl-N-(5-(4-(trifluoromethyl)phenethoxy)-1H-indol-3-yl)cyclopropane-1-carboxamide] gave an EC50 of 40 to 200 nM.
O=C(Nc1c[nH]c2ccc(OCCc3ccc(C(F)(F)F)cc3)cc12)C1CC(F)C1 (stereo not drawn) [Compound 207, 3-fluoro-N-(5-(4-(trifluoromethyl)phenethoxy)-1H-indol-3-yl)cyclobutane-1-carboxamide] was tested, and the EC50 was 40 to 200 nM.
Compound CC(=O)Nc1c[nH]c2ccc(CCOc3ccccc3C3(C)CCN(CC(F)(F)F)CC3)cc12 [Compound 208, N-(5-(2-(2-(4-methyl-1-(2,2,2-trifluoroethyl)piperidin-4-yl)phenoxy)ethyl)-1H-indol-3-yl)acetamide] has an EC50 of 1000 to 5000 nM.
For O=C(Nc1c[nH]c2ccc(C(O)CCc3ccc(C(F)(F)F)cc3)cc12)C1CC1 (stereo not drawn) [Compound 209, N-(5-(1-hydroxy-3-(4-(trifluoromethyl)phenyl)propyl)-1H-indol-3-yl)cyclopropanecarboxamide], the EC50 was 200 to 1000 nM.
Compound O=C(Nc1c[nH]c2ccc(OCCc3ccc(C(F)(F)F)cc3)cc12)C1CN(CC(F)(F)F)C1 [Compound 210, 1-(2,2,2-trifluoroethyl)-N-(5-(4-(trifluoromethyl)phenethoxy)-1H-indol-3-yl)azetidine-3-carboxamide] has an EC50 of 40 to 200 nM.
Compound CO[C@H]1C[C@H](C(=O)Nc2c[nH]c3ccc(OCCc4ccc(C(F)(F)F)cc4)cc23)C1 [Compound 211, trans-3-methoxy-N-(5-(4-(trifluoromethyl)phenethoxy)-1H-indol-3-yl)cyclobutane-1-carboxamide] has an EC50 of 40 to 200 nM.
In the case of CC(=O)Nc1c[nH]c2ccc(CCOc3ccc(C(F)(F)F)cc3)c(F)c12 [Compound 213, N-(4-fluoro-5-(2-(4-(trifluoromethyl)phenoxy)ethyl)-1H-indol-3-yl)acetamide], the EC50 is reported as 200 to 1000 nM.
CC(=O)Nc1c[nH]c2ccc(CCOc3ccc(Cl)c(Cl)c3)cc12 [Compound 214, N-(5-(2-(3,4-dichlorophenoxy)ethyl)-1H-indol-3-yl)acetamide] gave an EC50 of 200 to 1000 nM.
CC(=O)Nc1c[nH]c2ccc(CCOc3ccc(C(F)(F)F)cn3)cc12 [Compound 215, N-(5-(2-((5-(trifluoromethyl)pyridin-2-yl)oxy)ethyl)-1H-indol-3-yl)acetamide] was tested, and the EC50 was 200 to 1000 nM.
In the case of O=C(Nc1c[nH]c2ccc(OCCc3ccc(C(F)(F)F)cc3)cc12)C1CC1(F)Cl (stereo not drawn) [Compound 216, 2-chloro-2-fluoro-N-(5-(4-(trifluoromethyl)phenethoxy)-1H-indol-3-yl)cyclopropane-1-carboxamide], the EC50 is reported as 200 to 1000 nM.
Compound O=C(Nc1c[nH]c2ccc(OCCc3ccc(C(F)(F)F)cc3)cc12)C1CC(Cl)C1 (stereo not drawn) [Compound 217, 3-chloro-N-(5-(4-(trifluoromethyl)phenethoxy)-1H-indol-3-yl)cyclobutane-1-carboxamide] has an EC50 of 40 to 200 nM.
O=C(Nc1c[nH]c2ccc(OCCc3ccc(C(F)(F)F)cc3)cc12)C1(F)CC1 [Compound 218, 1-fluoro-N-(5-(4-(trifluoromethyl)phenethoxy)-1H-indol-3-yl)cyclopropane-1-carboxamide] was tested, and the EC50 was 200 to 1000 nM.
Work on O=C(Nc1c[nH]c2ccc(CCOc3ccc(C(F)(F)F)cc3)cc12)C1CN(CC(F)(F)F)C1 [Compound 219, 1-(2,2,2-trifluoroethyl)-N-(5-(2-(4-(trifluoromethyl)phenoxy)ethyl)-1H-indol-3-yl)azetidine-3-carboxamide] yielded an EC50 of 40 to 200 nM.
Work on CO[C@H]1C[C@H](C(=O)Nc2c[nH]c3ccc(CCOc4ccc(C(F)(F)F)cc4)cc23)C1 [Compound 220, trans-3-methoxy-N-(5-(2-(4-(trifluoromethyl)phenoxy)ethyl)-1H-indol-3-yl)cyclobutane-1-carboxamide] yielded an EC50 of 40 to 200 nM.
CO[C@H]1C[C@@H](C(=O)Nc2c[nH]c3ccc(CCOc4ccc(C(F)(F)F)cc4)cc23)C1 [Compound 221, cis-3-methoxy-N-(5-(2-(4-(trifluoromethyl)phenoxy)ethyl)-1H-indol-3-yl)cyclobutane-1-carboxamide] gave an EC50 of 40 to 200 nM.
With CO[C@H]1C[C@@H](C(=O)Nc2c[nH]c3ccc(OCCc4ccc(C(F)(F)F)cc4)cc23)C1 [Compound 222, cis-3-methoxy-N-(5-(4-(trifluoromethyl)phenethoxy)-1H-indol-3-yl)cyclobutane-1-carboxamide] the EC50 was 40 to 200 nM.
With CC(=O)Nc1c[nH]c2cc(F)c(CCOc3ccc(C(F)(F)F)cc3)cc12 [Compound 223, N-(6-fluoro-5-(2-(4-(trifluoromethyl)phenoxy)ethyl)-1H-indol-3-yl)acetamide] the EC50 was 40 to 200 nM.

Source: patent publication US12503436B2, “Compounds and compositions for treating conditions associated with STING activity” (NOVARTIS PHARMA AG, priority 2021, dated 2025)
